Test results reported in US10760052B2, “Method of inhibiting tau phosphorylation” (priority 2012, dated 2020).
Read-outs that look alike come from different tables or passages of the source.

Target: T1, mu opiate receptor (MOR) (Rattus norvegicus, UniProt P33535)
T1 construct: from tissue; host or cells: striatum (membrane preparation)
Assay type: biochemical
Details: for Concentration of FLNA-Binding Compound as Agonist 0.1 μM / Concentration of FLNA-Binding Compound as Agonist 1 μM / Concentration of FLNA-Binding Compound as Agonist 1 μM + BFNA: [35S]GTPγS binding to Gαo in striatal membranes; for Concentration of FLNA-Binding Compound as Agonist 0.1 μM: compound 0.1 μM; for Concentration of FLNA-Binding Compound as Agonist 1 μM: compound 1 μM; for Concentration of FLNA-Binding Compound as Agonist 1 μM + BFNA: compound 1 μM plus 1 μM β-funaltrexamine (MOR antagonist)
Protocol: To assess the mu opiate receptor (MOR) agonist activity of positive compounds from the FLNA screening, compounds were tested in a [^35S]GTPγS binding assay using striatal membranes. […] This assay measures a functional consequence of receptor occupancy at one of the earliest receptor-mediated events. The assay permits for traditional pharmacological parameters of potency, efficacy and antagonist affinity, with the advantage that agonist measures are not subjected to amplification or other modulation that may occur when analyzing parameters further downstream of the receptor.
Thus, striatal tissue was homogenized in 10 volumes of ice cold 25 mM HEPES buffer, pH 7.4, which contained 1 mM EGTA, 100 mM sucrose, 50 μg/ml leupeptin, 0.04 mM PMSF, 2 μg/ml soybean trypsin inhibitor and 0.2% 2-mercaptoethanol. The homogenates were centrifuged at 800×g for 5 minutes and the supernatants were centrifuged at 49,000×g for 20 minutes.
The resultant striatal membrane preparation (200 μg) was admixed and maintained (incubated) at 30° C. for 5 minutes in reaction buffer as above that additionally contained 1 mM MgCl2 and 0.5 nM [^35S]GTPγS (0.1 μCi/assay, PerkinElmer Life and Analytical Sciences) in a total volume of 250 μl and continued for 5 minutes in the absence or presence of 0.1-10 μM of an assayed compound of interest. The reaction was terminated by dilution with 750 μl of ice-cold reaction buffer that contained 20 mM MgCl2 and 1 mM EGTA and immediate centrifugation at 16,000×g for 5 minutes.
Normal rabbit serum (1 μl) was added to 1 ml of lysate and incubated at 25° C. for 30 minutes. Nonspecific immune complexes were removed by incubation with 25 μl of protein A/G-conjugated agarose beads at 25° C. for 30 minutes followed by centrifugation at 5,000×g at 4° C. for 5 minutes. The supernatant was divided and separately incubated at 25° C. for 30 minutes with antibodies raised against Gαo proteins (1:1,000 dilutions).
The immunocomplexes so formed were collected by incubation at 25° C. for 30 minutes with 40 μl of agarose-conjugated protein A/G beads and centrifugation at 5,000×g at 4° C. for 5 minutes. The pellet was washed and suspended in buffer containing 50 mM Tris-HCl, pH 8.0, and 1% NP-40. The radioactivity in the suspension was determined by liquid scintillation spectrometry.

[1] = 0.1 μM compound, striatal membranes, Series C-2
[2] = 1 μM compound + 1 μM β-FNA (selective MOR antagonist), Series C-2
[3] = 1 μM compound, striatal membranes, Series C-2

T1 sequence (P33535 whole entry): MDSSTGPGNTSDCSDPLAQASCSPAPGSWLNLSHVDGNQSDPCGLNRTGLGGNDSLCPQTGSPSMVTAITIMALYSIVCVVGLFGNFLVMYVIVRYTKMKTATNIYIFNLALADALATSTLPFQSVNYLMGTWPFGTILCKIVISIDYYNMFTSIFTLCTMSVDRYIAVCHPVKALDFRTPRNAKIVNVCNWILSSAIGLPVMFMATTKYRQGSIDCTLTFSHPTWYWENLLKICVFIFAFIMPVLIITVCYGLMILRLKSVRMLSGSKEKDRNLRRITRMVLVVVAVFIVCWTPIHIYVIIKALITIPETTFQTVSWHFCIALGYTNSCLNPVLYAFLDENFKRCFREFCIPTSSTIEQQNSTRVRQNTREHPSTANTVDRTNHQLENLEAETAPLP

Row | Compound | % DAMGO (0.1 μM) [%] | % DAMGO (1 μM) [%] | % DAMGO + BFNA [%] | [35S]GTPγS binding, FLNA-Binding Compound as Agonist at 0.1 μM [1] [%] | [35S]GTPγS binding, FLNA-Binding Compound as Agonist at 1 μM + BFNA [2] [%] | [35S]GTPγS binding, FLNA-Binding Compound as Agonist at 1 μM [3] [%] | Concentration of FLNA-Binding Compound as Agonist 0.1 μM [%] | Concentration of FLNA-Binding Compound as Agonist 1 μM [%] | Concentration of FLNA-Binding Compound as Agonist 1 μM + BFNA [%] | [35S]GTPγS binding, FLNA-Binding Compound as Agonist at 0.1 μM [%] | [35S]GTPγS binding, FLNA-Binding Compound as Agonist at 1 μM [%] | [35S]GTPγS binding, FLNA-Binding Compound as Agonist at 1 μM + BFNA [%]
1 | CCOC(=O)CN1CCC2(CC1)OCCN2S(=O)(=O)c1ccc(C(C)=O)cc1 [Compound C0099M] | 93.8 | 88.0 | 241.5 | 157.2 | 114.7 | 195.7 | – | – | – | – | – | –
2 | COc1ccc(NC(=O)N2CCC3(CC2)OCCN3S(=O)(=O)c2ccc(OC)cc2)cc1 [Compound C0041] | 110.1 | 111.7 | 575.3 | – | – | – | 186.1 | 244.4 | 95.5 | – | – | –
3 | N#Cc1ccc(S(=O)(=O)N2CCC3(CC2)OCCN3S(=O)(=O)c2ccc(C#N)cc2)cc1 [Compound C0008] | 41.4 | 72.9 | 4.4 | – | – | – | 71.2 | 201.6 | 2.8 | – | – | –
4 | CC1CCC(C(C)C)C(OCC(O)CN2CCN(C)CC2)C1 (stereo not drawn) [Compound A0009] | 39.8 | 48.7 | 142.9 | – | – | – | 70.2 | 126.4 | 93.9 | – | – | –
5 | CCCCN1CCC2(CC1)OCCN2S(=O)(=O)c1ccc(C(C)=O)cc1 [Compound C0101M] | 82.5 | 123.4 | 368.0 | 138.2 | 174.8 | 274.3 | – | – | – | – | – | –
6 | CC1CCC(C(C)C)C(OCC(O)CN(C(C)C)C(C)C)C1 (stereo not drawn) [Compound A0037] | 90.7 | 85.6 | 141.5 | – | – | – | 177.9 | 236.2 | 104.6 | – | – | –
7 | C=CCN1CCC2(CC1)OCCN2S(=O)(=O)c1ccc(OC)cc1 [Compound C0091M] | 118.1 | 108.5 | 367.3 | 207.9 | 80.8 | 274.4 | – | – | – | – | – | –
8 | O=S(=O)(c1ccc(F)cc1)N1CCC2(CC1)OCCN2S(=O)(=O)c1ccc(F)cc1 [Compound C0029] | 91.2 | 113.1 | 37.8 | – | – | – | 175.4 | 308.8 | 16.6 | – | – | –
9 | O=C1CNC2(CCNCC2)N1Cc1ccccc1 [Compound C0114M] | 77.6 | 71.4 | 91.3 | – | – | – | – | – | – | 114.0 | 144.3 | 35.9
10 | CC1CCC(C(C)C)C(OCC(O)CN2CCOCC2)C1 (stereo not drawn) [Compound A0004] | 55.2 | 55.6 | 130.9 | – | – | – | 97.4 | 144.2 | 86.0 | – | – | –
11 | COc1ccc(N2CCN(CC(O)COC3CC(C)CCC3C(C)C)CC2)c(OC)c1 (stereo not drawn) [Compound A0012] | 99.9 | 80.7 | 461.9 | – | – | – | 149.3 | 185.7 | 122.4 | – | – | –
12 | COc1ccc(OCC(O)Cn2ccc3ccccc32)cc1 (stereo not drawn) [Compound A0077] | 170.5 | 132.3 | 470.5 | – | – | – | 300.1 | 334.7 | 103.5 | – | – | –
13 | CC(=O)c1ccc(C(=O)N2CCOC23CCN(S(=O)(=O)c2ccc(C(C)=O)cc2)CC3)cc1 [Compound C0053] | 71.7 | 67.5 | 211.6 | – | – | – | 104.0 | 157.2 | 93.1 | – | – | –
14 | CCCCc1ccc(S(=O)(=O)N2CCC3(CC2)OCCN3S(=O)(=O)c2ccc(CCCC)cc2)cc1 [Compound C0030] | 96.0 | 98.0 | 291.4 | – | – | – | 150.3 | 226.8 | 95.0 | – | – | –
15 | COc1cccc(CC(=O)CC2c3c(cc4c(c3OC)OCO4)CC[N+]2(C)C)c1OC (stereo not drawn) [Compound B0038] | 94.2 | 88.7 | 359.2 | – | – | – | 147.5 | 205.5 | 117.1 | – | – | –
16 | COc1cccc(OC)c1CC(=O)CC1c2c(cc3c(c2OC)OCO3)CC[N+]1(C)C (stereo not drawn) [Compound B0036] | 39.2 | 52.1 | 199.7 | – | – | – | 61.4 | 120.6 | 65.1 | – | – | –
17 | COc1ccc(OCC(O)CN2CCOc3ccccc32)cc1 (stereo not drawn) [Compound A0076] | 46.4 | 78.6 | 119.4 | – | – | – | 79.8 | 172.6 | 41.2 | – | – | –
18 | COc1ccc(S(=O)(=O)N2CCC3(CC2)NCCO3)cc1 [Compound C0026] | 107.7 | 105.6 | 48.3 | 207.2 | 21.2 | 288.4 | – | – | – | – | – | –
19 | COc1ccc(CCC(=O)CC2c3c(cc4c(c3OC)OCO4)CCN2C)cc1 (stereo not drawn) [Compound B0047] | 106.3 | 92.6 | 260.1 | – | – | – | 187.8 | 235.6 | 68.4 | – | – | –
20 | CC(=O)c1ccc(S(=O)(=O)N2CCC3(CC2)NCC(=O)N3Cc2ccccc2)cc1 [Compound C0082M] | 113.7 | 107.8 | 181.1 | – | – | – | 228.1 | 338.4 | 97.6 | – | – | –
21 | CC1CCC(C(C)C)C(OCC(O)CN2CCCC2=O)C1 (stereo not drawn) [Compound A0035] | 61.5 | 57.5 | 119.9 | – | – | – | 120.6 | 158.8 | 88.6 | – | – | –
22 | COc1ccc(C(=O)CC2c3c(cc4c(c3OC)OCO4)CC[N+]2(C)C)c(O)c1 (stereo not drawn) [Compound B0033] | 77.6 | 69.2 | 95.4 | – | – | – | 149.3 | 188.9 | 41.9 | – | – | –
23 | CC1CCC(C(C)C)C(OCC(O)CN2CCSC2)C1 (stereo not drawn) [Compound A0002] | 104.1 | 86.6 | 24.5 | – | – | – | 155.6 | 199.4 | 6.5 | – | – | –
